Assays:
Type in all cases: biochemical
ADRBK2 (GRK3) = target: T1, ADRBK2 (GRK3) (Homo sapiens, UniProt P35626); experiment: Z'-LYTE kinase panel
T1 construct: purchased ThermoFisher (SelectScreen, Z'-LYTE)
T1 sequence (P35626 1-688): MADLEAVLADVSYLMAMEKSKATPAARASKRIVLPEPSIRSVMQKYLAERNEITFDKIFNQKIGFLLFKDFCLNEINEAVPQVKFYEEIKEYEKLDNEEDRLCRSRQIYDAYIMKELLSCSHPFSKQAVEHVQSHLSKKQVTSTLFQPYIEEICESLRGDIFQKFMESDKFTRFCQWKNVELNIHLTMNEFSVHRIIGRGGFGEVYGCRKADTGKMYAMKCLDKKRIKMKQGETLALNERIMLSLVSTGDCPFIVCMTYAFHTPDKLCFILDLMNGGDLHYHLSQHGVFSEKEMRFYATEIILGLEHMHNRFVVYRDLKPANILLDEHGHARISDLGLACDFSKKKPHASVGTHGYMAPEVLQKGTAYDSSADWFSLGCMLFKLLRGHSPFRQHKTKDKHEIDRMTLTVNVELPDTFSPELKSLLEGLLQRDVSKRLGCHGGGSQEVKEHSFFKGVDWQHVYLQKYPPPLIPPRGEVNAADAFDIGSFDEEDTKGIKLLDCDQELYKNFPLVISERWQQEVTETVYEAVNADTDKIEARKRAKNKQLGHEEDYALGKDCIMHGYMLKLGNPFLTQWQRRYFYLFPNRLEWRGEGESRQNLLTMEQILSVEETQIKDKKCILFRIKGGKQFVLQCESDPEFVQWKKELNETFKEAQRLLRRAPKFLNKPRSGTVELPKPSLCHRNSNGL
Procedure, shortened: (§1)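 Standard Z′-LYTE protocol applied. Compound fixed at 10 µM. Output: % inhibition. Panel size 225 kinases.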

PDK1 = target: T2, PDK1 (Homo sapiens, UniProt O15530); experiment: Z'-LYTE kinase panel; details: 10 µM compound; ATP 100
T2 construct: purchased ThermoFisher (SelectScreen, Z'-LYTE)
T2 sequence (O15530 1-556): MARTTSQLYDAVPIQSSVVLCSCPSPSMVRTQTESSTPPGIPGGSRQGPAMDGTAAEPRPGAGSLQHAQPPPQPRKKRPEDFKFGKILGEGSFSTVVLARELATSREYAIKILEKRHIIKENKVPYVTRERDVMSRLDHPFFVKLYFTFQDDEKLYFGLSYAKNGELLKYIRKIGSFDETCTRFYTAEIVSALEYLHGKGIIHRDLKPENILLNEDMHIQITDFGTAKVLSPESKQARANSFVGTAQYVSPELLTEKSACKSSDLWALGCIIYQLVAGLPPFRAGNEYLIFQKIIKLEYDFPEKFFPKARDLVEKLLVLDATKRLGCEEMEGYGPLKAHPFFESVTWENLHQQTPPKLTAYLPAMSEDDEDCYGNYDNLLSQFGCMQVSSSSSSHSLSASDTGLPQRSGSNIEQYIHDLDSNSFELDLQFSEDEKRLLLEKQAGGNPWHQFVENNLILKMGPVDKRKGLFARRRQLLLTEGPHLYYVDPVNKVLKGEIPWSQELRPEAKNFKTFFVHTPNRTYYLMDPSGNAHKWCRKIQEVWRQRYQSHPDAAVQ
Procedure, shortened: as §1

AMPK A1/B1/G1 = target: T3, AMPK A1/B1/G1 (Homo sapiens, UniProt Q13131); experiment: Z'-LYTE kinase panel
T3 construct: purchased ThermoFisher (SelectScreen, Z'-LYTE)
T3 sequence (Q13131 whole entry): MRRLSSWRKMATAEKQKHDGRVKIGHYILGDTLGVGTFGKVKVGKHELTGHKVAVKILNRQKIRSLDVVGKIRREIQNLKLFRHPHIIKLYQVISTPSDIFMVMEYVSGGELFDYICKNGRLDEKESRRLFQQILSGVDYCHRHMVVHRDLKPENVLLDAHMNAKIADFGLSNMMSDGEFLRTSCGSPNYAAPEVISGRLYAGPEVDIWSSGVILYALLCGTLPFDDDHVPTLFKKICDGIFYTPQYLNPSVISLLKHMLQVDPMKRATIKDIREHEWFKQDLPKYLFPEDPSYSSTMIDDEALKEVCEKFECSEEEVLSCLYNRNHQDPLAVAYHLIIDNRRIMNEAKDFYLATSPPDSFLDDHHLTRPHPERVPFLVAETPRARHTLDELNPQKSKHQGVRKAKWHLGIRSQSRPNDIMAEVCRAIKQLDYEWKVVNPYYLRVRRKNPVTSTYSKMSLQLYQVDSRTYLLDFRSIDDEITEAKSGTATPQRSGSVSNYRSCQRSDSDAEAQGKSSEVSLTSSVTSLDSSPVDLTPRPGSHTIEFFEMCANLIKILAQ
T3 sequence (Q9Y478 whole entry partner): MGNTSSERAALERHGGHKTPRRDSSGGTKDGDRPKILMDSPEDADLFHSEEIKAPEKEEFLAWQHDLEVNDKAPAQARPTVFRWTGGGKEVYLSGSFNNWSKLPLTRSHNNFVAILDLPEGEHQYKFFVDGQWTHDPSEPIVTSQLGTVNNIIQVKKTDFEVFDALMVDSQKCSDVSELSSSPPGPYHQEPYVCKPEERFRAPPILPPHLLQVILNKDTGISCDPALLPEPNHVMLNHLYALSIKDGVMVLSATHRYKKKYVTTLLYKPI
T3 sequence (P54619 whole entry partner): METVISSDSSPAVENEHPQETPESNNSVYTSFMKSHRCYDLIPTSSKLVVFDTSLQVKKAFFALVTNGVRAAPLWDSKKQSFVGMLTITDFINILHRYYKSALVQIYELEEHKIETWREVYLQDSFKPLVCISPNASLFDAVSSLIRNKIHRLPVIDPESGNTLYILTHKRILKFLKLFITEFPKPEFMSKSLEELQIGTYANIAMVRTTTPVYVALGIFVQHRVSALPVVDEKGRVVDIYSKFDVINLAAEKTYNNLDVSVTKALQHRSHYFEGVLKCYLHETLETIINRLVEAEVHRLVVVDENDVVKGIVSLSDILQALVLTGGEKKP
Procedure, shortened: as §1

ERBB4 (HER4) = target: T4, ERBB4 (HER4) (Homo sapiens, UniProt Q15303); experiment: Z'-LYTE kinase panel
T4 construct: purchased ThermoFisher (SelectScreen, Z'-LYTE)
T4 sequence (Q15303 26-1308): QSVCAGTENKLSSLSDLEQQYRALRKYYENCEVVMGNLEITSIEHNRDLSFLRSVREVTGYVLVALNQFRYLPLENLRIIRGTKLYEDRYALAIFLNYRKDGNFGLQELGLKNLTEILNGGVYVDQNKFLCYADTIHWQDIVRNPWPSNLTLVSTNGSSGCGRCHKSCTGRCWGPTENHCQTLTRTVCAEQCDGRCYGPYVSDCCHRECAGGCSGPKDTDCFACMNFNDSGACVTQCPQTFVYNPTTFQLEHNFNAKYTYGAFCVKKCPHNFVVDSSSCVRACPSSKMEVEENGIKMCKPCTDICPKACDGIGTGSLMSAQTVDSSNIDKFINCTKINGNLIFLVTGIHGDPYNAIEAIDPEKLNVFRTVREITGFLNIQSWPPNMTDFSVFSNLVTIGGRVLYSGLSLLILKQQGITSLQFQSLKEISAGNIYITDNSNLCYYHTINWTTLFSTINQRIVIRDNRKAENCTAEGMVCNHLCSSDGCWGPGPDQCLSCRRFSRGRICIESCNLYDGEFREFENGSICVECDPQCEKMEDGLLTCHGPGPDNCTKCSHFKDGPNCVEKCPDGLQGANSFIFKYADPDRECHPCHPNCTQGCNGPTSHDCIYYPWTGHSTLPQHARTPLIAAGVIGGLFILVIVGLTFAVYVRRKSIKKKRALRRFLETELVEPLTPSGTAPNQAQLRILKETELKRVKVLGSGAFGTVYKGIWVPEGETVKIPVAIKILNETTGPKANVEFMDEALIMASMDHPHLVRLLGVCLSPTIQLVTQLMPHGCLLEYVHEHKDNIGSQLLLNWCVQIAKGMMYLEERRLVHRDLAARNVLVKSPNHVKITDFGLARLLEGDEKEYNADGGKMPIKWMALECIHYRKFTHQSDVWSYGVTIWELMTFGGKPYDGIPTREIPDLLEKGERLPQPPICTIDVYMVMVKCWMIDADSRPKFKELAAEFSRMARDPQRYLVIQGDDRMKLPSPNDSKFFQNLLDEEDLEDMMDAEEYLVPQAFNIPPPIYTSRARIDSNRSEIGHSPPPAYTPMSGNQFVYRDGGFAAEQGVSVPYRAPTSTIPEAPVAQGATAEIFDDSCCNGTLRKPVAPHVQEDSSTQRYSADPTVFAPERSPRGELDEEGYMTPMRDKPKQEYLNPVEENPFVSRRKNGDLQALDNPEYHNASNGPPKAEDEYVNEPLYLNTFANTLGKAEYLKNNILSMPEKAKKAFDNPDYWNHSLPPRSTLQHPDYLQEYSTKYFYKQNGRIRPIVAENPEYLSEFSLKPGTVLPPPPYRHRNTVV
Procedure, shortened: as §1

MAP2K6 (MKK6) = target: T5, MAP2K6 (MKK6) (Homo sapiens, UniProt P52564); experiment: Z'-LYTE kinase panel; details: 10 µM compound; ATP 100
T5 construct: purchased ThermoFisher (SelectScreen, Z'-LYTE)
T5 sequence (P52564 1-334): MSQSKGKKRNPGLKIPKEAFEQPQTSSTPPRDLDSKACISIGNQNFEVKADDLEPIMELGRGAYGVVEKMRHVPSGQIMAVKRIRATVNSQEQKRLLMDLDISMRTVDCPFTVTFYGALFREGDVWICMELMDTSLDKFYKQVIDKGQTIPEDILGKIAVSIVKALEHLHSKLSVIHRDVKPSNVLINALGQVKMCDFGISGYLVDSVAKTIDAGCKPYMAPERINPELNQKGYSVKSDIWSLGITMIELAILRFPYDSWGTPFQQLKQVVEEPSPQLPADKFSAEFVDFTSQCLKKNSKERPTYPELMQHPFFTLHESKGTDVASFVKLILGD
Procedure, shortened: as §1

AXL = target: T6, AXL (Homo sapiens, UniProt P30530); experiment: Z'-LYTE kinase panel
T6 construct: purchased ThermoFisher (SelectScreen, Z'-LYTE)
T6 sequence (P30530 26-894): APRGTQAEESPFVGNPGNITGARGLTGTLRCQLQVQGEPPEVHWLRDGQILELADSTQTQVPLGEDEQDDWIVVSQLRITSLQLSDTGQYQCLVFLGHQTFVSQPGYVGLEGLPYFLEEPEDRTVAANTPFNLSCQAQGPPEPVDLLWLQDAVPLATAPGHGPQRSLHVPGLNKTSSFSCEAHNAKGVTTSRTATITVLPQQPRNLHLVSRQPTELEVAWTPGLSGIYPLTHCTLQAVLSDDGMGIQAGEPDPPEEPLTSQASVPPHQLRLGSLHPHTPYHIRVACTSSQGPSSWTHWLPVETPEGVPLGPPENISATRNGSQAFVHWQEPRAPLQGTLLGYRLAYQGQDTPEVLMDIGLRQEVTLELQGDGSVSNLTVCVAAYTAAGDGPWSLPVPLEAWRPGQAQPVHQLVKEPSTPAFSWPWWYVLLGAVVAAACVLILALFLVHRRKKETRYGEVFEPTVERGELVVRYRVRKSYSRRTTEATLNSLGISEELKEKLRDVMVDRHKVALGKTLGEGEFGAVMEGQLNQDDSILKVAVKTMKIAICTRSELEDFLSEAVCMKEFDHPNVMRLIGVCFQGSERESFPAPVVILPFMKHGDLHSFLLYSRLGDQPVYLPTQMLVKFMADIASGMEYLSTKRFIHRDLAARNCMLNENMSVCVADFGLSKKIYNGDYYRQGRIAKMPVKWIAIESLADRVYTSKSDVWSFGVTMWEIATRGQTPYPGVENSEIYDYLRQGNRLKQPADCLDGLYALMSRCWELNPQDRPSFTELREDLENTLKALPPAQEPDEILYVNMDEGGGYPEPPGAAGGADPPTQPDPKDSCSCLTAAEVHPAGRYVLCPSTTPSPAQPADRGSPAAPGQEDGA
Procedure, shortened: as §1

RPS6KA5 (MSK1) = target: T7, RPS6KA5 (MSK1) (Homo sapiens, UniProt O75582); experiment: Z'-LYTE kinase panel
T7 construct: purchased ThermoFisher (SelectScreen, Z'-LYTE)
T7 sequence (O75582 whole entry): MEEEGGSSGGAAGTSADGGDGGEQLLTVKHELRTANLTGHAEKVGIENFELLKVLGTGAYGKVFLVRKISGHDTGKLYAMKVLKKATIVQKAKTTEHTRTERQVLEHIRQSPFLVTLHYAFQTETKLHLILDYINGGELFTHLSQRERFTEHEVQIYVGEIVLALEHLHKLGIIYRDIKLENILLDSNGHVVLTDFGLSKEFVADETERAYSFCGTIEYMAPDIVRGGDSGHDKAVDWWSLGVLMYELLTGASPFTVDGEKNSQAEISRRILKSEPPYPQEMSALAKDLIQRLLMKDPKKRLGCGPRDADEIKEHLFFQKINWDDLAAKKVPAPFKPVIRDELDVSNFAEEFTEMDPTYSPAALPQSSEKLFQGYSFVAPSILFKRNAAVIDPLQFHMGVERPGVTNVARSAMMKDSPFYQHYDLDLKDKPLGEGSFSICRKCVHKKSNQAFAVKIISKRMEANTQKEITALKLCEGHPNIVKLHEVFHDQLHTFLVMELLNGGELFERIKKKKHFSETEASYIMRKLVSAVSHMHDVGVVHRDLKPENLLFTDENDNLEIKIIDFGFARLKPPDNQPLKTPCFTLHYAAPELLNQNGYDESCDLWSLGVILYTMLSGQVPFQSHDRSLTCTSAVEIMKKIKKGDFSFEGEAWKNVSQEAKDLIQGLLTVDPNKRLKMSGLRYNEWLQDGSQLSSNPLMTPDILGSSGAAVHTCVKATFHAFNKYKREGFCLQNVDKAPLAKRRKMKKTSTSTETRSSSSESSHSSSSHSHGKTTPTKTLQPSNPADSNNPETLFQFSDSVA
Procedure, shortened: as §1

[1] = test system: 225 kinases in the ThermoFisher standard kinase panel; experiment: Kinase-panel activity screen, whole panel; details: 10 µM compound; for Kinase selectivity profile in words: panel of 225 kinases
Method: Compounds 2, 3 and 5 were tested for activity against the 225 kinases in the ThermoFisher standard kinase panel. The standard Z′-LYTE assay protocol (ThermoFisher) was used to measure the percentage inhibition at 10 µM compound concentration (details are provided in the supporting information).

Compound | ADRBK2 (GRK3) % Inhibition (ADRBK2 (GRK3); 10 µM compound, ATP Km app) | PDK1 % Inhibition (PDK1) | AMPK A1/B1/G1 % Inhibition (AMPK A1/B1/G1; 10 µM compound, ATP Km app) | ERBB4 (HER4) % Inhibition (ERBB4 (HER4); 10 µM compound, ATP Km app) | MAP2K6 (MKK6) % Inhibition (MAP2K6 (MKK6)) | AXL % Inhibition (AXL; 10 µM compound, ATP Km app) | RPS6KA5 (MSK1) % Inhibition (RPS6KA5 (MSK1); 10 µM compound, ATP Km app) | Kinase selectivity profile in words [1] | inhibition at 10 µM (ADRBK2 (GRK3)) | inhibition at 10 µM (PDK1) | inhibition at 10 µM (AMPK A1/B1/G1) | inhibition at 10 µM (ERBB4 (HER4)) | inhibition at 10 µM (MAP2K6 (MKK6)) | inhibition at 10 µM (AXL) | inhibition at 10 µM (RPS6KA5 (MSK1)) | Number of kinases with significant activity (greater than 80% inhibition) out of the 225 tested [1]
XMD8-92 [Compound 2, reference compound] | -7% | 21% | 55% | 16% | 8% | 3% | 47% | – | – | – | – | – | – | – | – | –
Cc1ncc(-c2nc(Nc3ccc(C(=O)NCCN4CCCCC4)cc3)ncc2F)n1C(C)C [Compound 3] | – | – | – | – | – | – | – | most promiscuous | 0.689% | 50% | 95% | 17% | 88% | 95% | 86% | –
Cc1cc(Nc2nc(N)nn2C(=O)NC(C)C)ccc1Cl [Compound 5] | – | – | – | – | – | – | – | most selective | -7% | 8% | 23% | 7% | -1.06% | 18% | 6.35% | five
